The record followed here is patent US20250340577A1, “BETA-LACTOMASE INHIBITORS AND USES THEREOF” (Case Western Reserve University, priority 2021, published 2025).

Each structure is given as a SMILES string.

For assay [1], the system named is HUMC1 Abspp. The assay is described as follows: MIC of antibiotics in combination with 10 μg/mL of ceftolozane-like BATSIs. Format: cell-based. The following applies: SULB alone.
Assay [2] concerns NDM-1 pHSG298. Described as above. Format: cell-based. The following applies: IMI alone.
The subject of assay [3] is M9 clinical. The description is as above. Format: cell-based. The following applies: CAZ alone.
Assay [4] concerns blaADC-7. The description is as above. Format: cell-based. The following applies: for MIC values of antibiotics in combination with 10 μg/mL of compounds: CAZ + 10 μg/mL compound.
For assay [5], the system named is 18SH. Described as above. Format: cell-based. The following applies: for MIC values of antibiotics in combination with 10 μg/mL of compounds: CAZ + 10 μg/mL compound.
Assay [6] relates to blaCMY-2. The assay is described as above. The following applies: for MIC values of antibiotics in combination with 10 μg/mL of compounds: CAZ + 10 μg/mL compound. Format: cell-based.
Assay [7] concerns blaPDC-3E221K. The description is as above. Format: cell-based. The following applies: for MIC values of antibiotics in combination with 10 μg/mL of compounds: CAZ + 10 μg/mL compound.
Assay [8] relates to K. pneum KPC-Kpn. The description is as above. Format: cell-based. The following applies: for MIC values of antibiotics in combination with 10 μg/mL of compounds: FEP + 10 μg/mL compound.
The subject of assay [9] is K. pneum blaKPC-2. The assay is described as above. The following applies: for MIC values of antibiotics in combination with 10 μg/mL of compounds: FEP + 10 μg/mL compound. Format: cell-based.
Assay [10] has as its system blaCTXM-9. Described as above. The following applies: for MIC values of antibiotics in combination with 10 μg/mL of compounds: FEP + 10 μg/mL compound. Format: cell-based.
The subject of assay [11] is K. pneumoniae Kp1. The assay is described as follows: Survival of mice infected IV with K. pneumoniae Kp1. The following applies: C57BL/6 mice infected IV with KP1; treated IP at infection, 18 h and 24 h; cefepime 100 mg/kg/dose; cefepime+MB076 at 1:4 ratio. Format: in vivo. As for the experimental part: FIG. 1 illustrates the survival curve of mice infected IV with K. pneumoniae Kp1 and treated with cefepime alone or in combination with MB076. Five male C57BL/6 mice per treatment were infected IV via the tail-vein with 2.1×10^8 CFU/mouse and treated with placebo control (phosphate-buffered saline), cefepime (100 mg/kg/dose), or cefepime and MB076.
To determine […] activity of MB076 we used cefepime with or without MB076 in mice infected IV with the pan drug resistant strain KP1 and treated IP at the time of infection with placebo control, cefepime, or cefepime+MB076 (at 1:4 ratio). Doses were repeated the following morning and afternoon (18 h and 24 h after infection, respectively). All mice treated with placebo or cefepime alone died, whereas all mice treated with either ratio of MB076 plus cefepime survived.

Assay [12] concerns K. pneumoniae ST17. Description: MIC with cefepime, agar microdilution, CLSI. Format: cell-based. The following applies: cefepime alone; KPC-2, TEM, SHV, CTX-M-Group 1. As to the method: (§1) Minimum inhibitory concentration (MIC) of MB076 and derivatives (PCF_038-043) in combination with cefepime.
(§2) MICs were determined by the Agar microdilution method, following CLSI guidelines. Compounds were tested at fixed concentration of 4 ug/ml in combination with cefepime.

Assay [13] has as its system E. coli DH10B pBC-SK P99. The assay is described as follows: MIC with cefepime, agar microdilution, CLSI. Format: cell-based. The following applies: cefepime alone. As to the method:
as §1, §2

For assay [14], the system named is E. coli DH10B pBC-SK PDC-3. Description: MIC with cefepime, agar microdilution, CLSI. Format: cell-based. The following applies: cefepime alone. As to the method: as §1, §2
Assay [15] deals with E. coli DH10B pBC-SK KPC-2. The assay is described as follows: MIC with cefepime, agar microdilution, CLSI. Format: cell-based. The following applies: cefepime alone. As to the method:
as §1, §2

In assay [16] the test system is K. pneumoniae original KPC-2. The assay is described as follows: MIC with cefepime, agar microdilution, CLSI. The following applies: cefepime alone. Format: cell-based. As for the experimental part: as §1, §2
For assay [17], the system named is E. coli pLTCF1. Description: MIC with cefepime, agar microdilution, CLSI. Format: cell-based. The following applies: cefepime alone; CTX-M group 9. As for the experimental part: as §1, §2
The test system of assay [18] is K. pneumoniae 253. Description: MIC with cefepime, agar microdilution, CLSI. Format: cell-based. The following applies: cefepime alone; TEM-12, SHV-5, CTX-M. As for the experimental part: as §1, §2
For assay [19], the system named is E. coli DH10B pBC-SK control. Description: MIC with cefepime, agar microdilution, CLSI. Format: cell-based. The following applies: cefepime alone; B-lactamases none. As for the experimental part:
as §1, §2

Assay [20] relates to K. pneumoniae 266. The assay is described as follows: MIC with cefepime, agar microdilution, CLSI. Format: cell-based. The following applies: cefepime alone; SHV-5. As to the method: as §1, §2
The subject of assay [21] is E. coli ATCC BAA202. Description: MIC with cefepime, agar microdilution, CLSI. Format: cell-based. The following applies: cefepime alone; SHV-1. As to the method:
as §1, §2

Assay [22] deals with K. pneumoniae 255. The assay is described as follows: MIC with cefepime, agar microdilution, CLSI. Format: cell-based. The following applies: cefepime alone; TEM-1, SHV-2. As to the method: as §1, §2
The subject of assay [23] is K. pneumoniae 427. Description: MIC with cefepime, agar microdilution, CLSI. Format: cell-based. The following applies: cefepime alone; TEM-1, SHV-1, CTX-M-3. As to the method:
as §1, §2

The test system of assay [24] is E. coli 29838. Description: MIC with cefepime, agar microdilution, CLSI. The following applies: cefepime alone; CTX-M-14, TEM-1. Format: cell-based. As to the method:
as §1, §2

Assay [25] has as its system K. pneumoniae 34700. Description: MIC with cefepime, agar microdilution, CLSI. The following applies: cefepime alone; CTX-M-15, SHV, TEM. Format: cell-based. As to the method:
as §1, §2

In assay [26] the test system is K. pneumoniae ST258 B5. Description: MIC with cefepime, agar microdilution, CLSI. Format: cell-based. The following applies: cefepime alone; KPC-2. As to the method:
as §1, §2

Assay [27] relates to A. baumannii 0057. The assay is described as follows: MIC with cefepime, agar microdilution, CLSI. Format: cell-based. The following applies: cefepime alone; ADC-7. As for the experimental part: as §1, §2
Assay [28] relates to E. coli pLTCF2. Description: MIC with cefepime, agar microdilution, CLSI. Format: cell-based. The following applies: cefepime alone. As for the experimental part: as §1, §2
The test system of assay [29] is E. coli DH10B pBC-SK SHV-2. The assay is described as follows: MIC with cefepime, agar microdilution, CLSI. Format: cell-based. The following applies: cefepime alone. As for the experimental part: as §1, §2
Assay [30] deals with K. pneumoniae ST258 C3. The assay is described as follows: MIC with cefepime, agar microdilution, CLSI. Format: cell-based. The following applies: cefepime alone; KPC-3. As for the experimental part:
as §1, §2

Assay [31] relates to Klebsiella pneumonia/FDA-CDC AR-BANK#0098. Description: MIC of MB076 alone or in combination with cefepime or meropenem. Format: cell-based. The following applies: Klebsiella pneumoniae; single agent; read-out: MIC. As for the experimental part: as §2
Assay [32] relates to Klebsiella pneumonia/FDA-CDC AR-BANK#0097. Described as above. Format: cell-based. The following applies: Klebsiella pneumoniae; single agent; read-out: MIC. As to the method:
as §2

The test system of assay [33] is Klebsiella pneumonia/BAA-1705. The assay is described as above. Format: cell-based. The following applies: Klebsiella pneumoniae, BAA1705; single agent; read-out: MIC. As to the method: as §2

Consider `CC1(C)[C@H](C(=O)O)N2C(=O)C[C@H]2S1(=O)=O` [SULB, sulbactam], for which the MIC of antibiotic result in assay [1] is listed as “SULB 4 mg/mL”.
On to `C[C@@H](O)[C@H]1C(=O)N2C(C(=O)O)=C(SCCN=CN)C[C@H]12` [IMI], for which the MIC of antibiotic result in assay [2] is “IMI 8 mg/mL”.
In the case of `CC(C)(O/N=C(\C(=O)N[C@@H]1C(=O)N2C(C(=O)[O-])=C(C[n+]3ccccc3)CS[C@H]12)c1csc(N)n1)C(=O)O` [CAZ, ceftazidime, reference compound], the MIC of antibiotic entry in assay [3] is “CAZ >32 mg/mL”; in assay [4] (CAZ alone), “CAZ 16 mg/mL”; in assay [5] (CAZ alone), “CAZ 64 mg/mL”; in [6] (CAZ alone), “CAZ 128 mg/mL”; in [7] (CAZ alone), “CAZ 32 mg/mL”.
As for `CC(C)(O/N=C(\C(=O)NCB(O)O)c1nsc(N)n1)C(=O)O` [PCF_013], the “MIC values of antibiotics in combination with 10 μg/mL of compounds” value (from here on “MIC values of antibiotics in combination”) in assay [4] turned out to be 4 µg/mL; in assay [5] it was 64 µg/mL; in assay [6], 64 µg/mL; in assay [8], 16 µg/mL; in [9] it was 16 µg/mL; in assay [7], 8 µg/mL. Further, in [10], the “MIC values of antibiotics in combination” value came to 4 µg/mL.
For orientation: MIC means the lowest concentration found to suppress growth. `CO/N=C(\C(=O)N[C@@H]1C(=O)N2C(C(=O)[O-])=C(C[N+]3(C)CCCC3)CS[C@H]12)c1csc(N)n1` [Cefepime, cefepime, reference compound]: the “Survival of infected mice” value in assay [11] is on record as “died”. Moreover, the MIC of cefepime in assay [12] was 64 µg/mL; in assay [13], less than 0.25 µg/mL; in assay [14], less than 0.25 µg/mL; in assay [15], 8 µg/mL; in assay [16] it was 8 µg/mL; in assay [17], 8 µg/mL. The MIC of cefepime in assay [18] is 32 µg/mL; in assay [19] it was less than 0.25 µg/mL; in [20], 2 µg/mL; in assay [21] it was 1 µg/mL; in [22], 4 µg/mL; in assay [23], 8 µg/mL. Besides, the MIC of cefepime in assay [24] was 4 µg/mL; in assay [25] it was 32 µg/mL; in assay [26], 32 µg/mL; in assay [27] it was 64 µg/mL; in assay [28], 1 µg/mL; in assay [29] it was 4 µg/mL. Further, the MIC of cefepime in assay [30] was 8 µg/mL. In addition, the MIC of antibiotic entry in assay [8] (FEP alone) is listed as “FEP 32 mg/mL”; in assay [9] (FEP alone), 16/32; in [10] (FEP alone), “FEP 8 mg/mL”. The figures for the MIC in assay [31], in assay [32] and in assay [33] were 32 µg/mL, greater than 32 µg/mL and greater than 32 µg/mL, respectively.
In the case of `CC(C)(O/N=C(\C(=O)N[C@@H](Cn1cc(C(=O)O)nn1)B(O)O)c1nsc(N)n1)C(=O)O` [PCF_014], the “MIC values of antibiotics in combination” value was found to be 8 µg/mL in assay [4]; 64 µg/mL in [5]; 64 µg/mL in assay [6]; 32 µg/mL in assay [8]; 32 µg/mL in assay [9]; 32 µg/mL in [7]. The “MIC values of antibiotics in combination” value in assay [10] came out at 2 µg/mL.
